The text below walks through data of patent US20050153985A1, “Methods of treating acute inflammation in animals with p38 map kinase inhibitors” (priority 2003, published 2005).

Entries after “also recorded” stand apart in the source; their conditions may differ.

For the test, the system named is E. coli (MacDonald 487) induced mastitis. The experiment in a line: E. coli induced mastitis in lactating cows, treatment 13 hours after intramammary challenge. The following applies: 10 mg/kg IV; for mean E. coli colony counts in milk after treatment: 11-168 hours, FIG. 10; for mean E. coli colony counts in milk after treatment / milk somatic cell count (SCC) / mean whey PGE2 levels after treatment: compared to infected; for mean E. coli colony counts in milk after treatment / milk clinical scores / gland clinical scores: non-medicated controls; for whey PGE2 levels at 11 hours after treatment: relative to level at time 0; for milk produced during the 13 days after treatment: based on mean daily milk production values from FIG. 2, infected, non-medicated cow 365 lbs; for cumulative clinical scores: compared to controls, FIG. 5; for milk production loss associated with mastitis following treatment: compared to infected cows treated with vehicle, FIG. 2; for milk somatic cell count (SCC) / mean whey PGE2 levels after treatment: non-medicated control cows; for milk somatic cell count (SCC): FIG. 6; for mean whey PGE2 levels after treatment: FIG. 9; for milk produced during the 13 days after treatment compared with infected, non-medicated cow: comparison in words; for total WBC numbers (peripheral blood) / total PMN numbers (peripheral blood): data analyzed for 0-72 hours, vs controls; for total WBC numbers (peripheral blood): FIG. 7; for total PMN numbers (peripheral blood): FIG. 8; for milk clinical scores / gland clinical scores: vs infected; for milk clinical scores: FIG. 3; for gland clinical scores: FIG. 4. The format is in vivo, lactating Holstein cows. The source says: Thirty-three lactating Holstein cows were randomly allotted to 5 treatment groups blocked by milk production and days in milk. Milk and blood samples and temperature data were collected at the morning milking on day −1. One normal quarter was selected from each cow based on clinical scores and California Mastitis Test (CMT) results performed at morning milking on day −1. After the evening milking on […], selected quarters were infused with approximately 30 cfu of E. coli (MacDonald 487). Milk and blood samples and temperature data were collected prior to treatment at the morning milking on day 0. Cows were treated after the morning milking on day 0 according to the study design. After treatment, milk and blood samples and temperature data were collected at 11, 24, 35, 48, 72, 144, 168, 192, and 216 hours. Clinical scores of infused quarters and milk production were assessed at each milking. Milk samples were analyzed for culture (E. coli), SCC, TNF-α and PGE2 and blood leukograms were determined. [table] Assessment of test article efficacy was determined based upon a comparison of the treatment effect on each variable versus the challenged, non-medicated group. Data were analyzed using the MIXED procedure of PC-SAS version 6.12. The model included treatment, time and their interaction. Covariance within cows across time was modeled using the Repeated statement analysis with a […] covariance structure to account for unequally spaced sampling times. Tests for significance (P≦0.10) were based upon the main treatment effect compared with the challenged, non-medicated group. The P value of ≦0.10 was selected based on the number of animals per treatment group and the conservative nature of the SAS procedure. […] In all, 27 of 27 quarters challenged developed clinical mastitis.

Turning to `Nc1nccc(-c2c(-c3ccc(F)cc3)ncn2C2CCNCC2)n1` [MAPKi #1], the “mean E. coli colony counts in milk after treatment” value (“mean E. coli colony counts in milk” below) was “significantly decreased; also recorded: Significant improvement”, the “whey PGE2 levels at 11 hours after treatment” value (from here on “whey PGE2 levels at 11 hours”) is reported as “decline”, the “milk produced during the 13 days after treatment” value is on record as 847 lbs and the cumulative clinical scores result is “significantly lower; also recorded: Significant improvement”. Moreover, the “milk production loss associated with mastitis following treatment” value is “significantly less milk production loss; also recorded: Significant improvement”; the “milk somatic cell count (SCC)” value is “trend towards lower SCC”; the “mean whey PGE2 levels after treatment” value is “significant reduction; also recorded: Significant improvement”; the “milk produced during the 13 days after treatment compared with infected, non-medicated cow” value is reported as “more than twice as much milk”. The “total WBC numbers (peripheral blood)” value is recorded as “returned to pre-challenge levels significantly faster; also recorded: Significant improvement”, the “total PMN numbers (peripheral blood)” value is listed as “returned to pre-challenge levels significantly faster”, the milk clinical scores entry is listed as “significantly improved; also recorded: Significant improvement” and the gland clinical scores entry is listed as “Significantly improved; also recorded: Significant improvement”.
Consider `CC(C)n1c(=O)n(C)c2cc(-c3[nH]c(-c4cnccn4)nc3-c3ccc(F)cc3)ccc21` [MAPKi #2], for which the “mean E. coli colony counts in milk” value is “decline in milk E. coli numbers compared to controls but the difference was not significant; also recorded: reduced”, the “whey PGE2 levels at 11 hours” value is “remained at the same level”, the “milk produced during the 13 days after treatment” value worked out at 689 lbs and the cumulative clinical scores result is reported as “significantly lower; also recorded: Significant reductions”. Besides, the “mean whey PGE2 levels after treatment” value is “significant reduction”; the “milk produced during the 13 days after treatment compared with infected, non-medicated cow” value is “produced more milk than control cows”; the “total WBC numbers (peripheral blood)” value is on record as “returned to pre-challenge levels significantly faster”; the “total PMN numbers (peripheral blood)” value is “returned to pre-challenge levels significantly faster”. For the same molecule, the milk clinical scores entry is recorded as “significantly improved; also recorded: Significant reductions” and the gland clinical scores result is listed as “Significantly improved; also recorded: Significant reductions”.
Consider `CC(=O)Nc1nc(-c2cccc(C)c2)c(-c2ccc3c(c2)n(C)c(=O)n3CC(C)C)[nH]1` [MAPKi #3], for which the “mean E. coli colony counts in milk” value is listed as “did not show a decline”, the “whey PGE2 levels at 11 hours” value is “continue to rise”, the “milk produced during the 13 days after treatment” value is 366 lbs and the “milk production loss associated with mastitis following treatment” value is on record as “no trend for improved”. The “milk somatic cell count (SCC)” value is recorded as “trend towards lower SCC”; the “mean whey PGE2 levels after treatment” value is on record as “significant reduction; also recorded: significantly reduced”; the “milk produced during the 13 days after treatment compared with infected, non-medicated cow” value is given as “produced the same amount of milk as infected, non-medicated control cows”; the milk clinical scores entry is reported as “no trend for improved”. In addition, the gland clinical scores entry is reported as “Significantly improved”.
